Legend:
[1] = molecular target: T1, CaMKII F89G binding to GluN2B in HEK cells (Homo sapiens, UniProt Q9UQM7, F89G); assay: Ionomycin-induced co-localization of GFP-CaMKII F89G and mCh-GluN2B in HEK cells; type: cell-based; details: 10 μM NM-PP1
T1 construct: expressed in transfected cells; host or cells: HEK cells
Procedure: This conclusion also predicts that the LTP stimulus-induced movement of CaMKII to excitatory synapses should be (i) impaired in the CaMKII F89G mutant; but (ii) normalized by pharmacogenetic rescue with NM-PP1. Indeed, both predictions were observed experimentally (FIGS. 4D-4E).
Live imaging of HEK cells. HEK cells were grown and transfected with expression vectors for GFP-CaMKII mutants and pDisplay-mCh-GluN2B-c tail (2BC) as previously described; the GluN2B construct used included a S1303A mutation to avoid potential complications by differential phosphorylation of this regulatory site in the different conditions with or without kinase inhibitors. GFP-CaMKII colocalization with GluN2B in response to a Ca^2+ stimulus induced by 10 μM ionomycin was monitored for 5-10 min at 32° C. in imaging buffer (0.87× Hanks Balanced Salt Solution, 25 mM Hepes pH 7.4, 2 mM glucose, 2 mM CaCl2), 1 mM MgCl2) by fluorescence microscopy. Images were acquired on a Zeiss Axiovert 200M equipped with a climate control chamber, using SlideBook software (Intelligent Imaging Innovations). Colocalization analysis was performed by calculating the Pearson's correlation (correlation index) of pDisplay-mCh-2BC and GFP-CaMKII within the cytoplasm of HEK cells after background subtraction.

[2] = system: paCaMKII F89G movement to synapses and spine growth; assay: Photoactivation of paCaMKII F89G in hippocampal neurons (structural LTP); type: cell-based; details: NM-PP1 10 μM
Description: In this Example, two sets of pharmacogenetic tools were used in combination with the photoactivable paCaMKII to test whether structural CaMKII functions are not only the necessary but also the sufficient CaMKII functions in LTP. Specifically, in one exemplary method, hippocampal neurons were examined for sLTP (e.g., the LTP-associated growth of dendritic spines) in response to direct photoactivation of paCaMKII without any other stimulation that could trigger additional signaling pathways. […] In both cases, suppressing enzymatic CaMKII activity while allowing or enhancing GluN2B binding enabled induction of structural LTP.
paCaMKII stimulation in hippocampal neurons. […] Neurons were then imaged 15 minutes after stimulation and assessed for CaMKII synaptic enrichment and dendritic spine growth.
Image analysis of hippocampal neurons. […] 2D maximum intensity projection images were then generated and analyzed using a custom-build program in ImageJ. The program utilizes combinatorial thresholding to mask regions of the cell that contain high intensity PSD-95 puncta (the post-synaptic side of excitatory synapses in dendritic spines) and regions of the dendritic shaft that contain no fluorescence intensity of PSD-95. […] Spine growth was assessed by measuring the changes in mCherry cell fill fluorescence intensity within dendritic spine ROIs (F/F0).

T1 sequence (Q9UQM7 whole entry F89G): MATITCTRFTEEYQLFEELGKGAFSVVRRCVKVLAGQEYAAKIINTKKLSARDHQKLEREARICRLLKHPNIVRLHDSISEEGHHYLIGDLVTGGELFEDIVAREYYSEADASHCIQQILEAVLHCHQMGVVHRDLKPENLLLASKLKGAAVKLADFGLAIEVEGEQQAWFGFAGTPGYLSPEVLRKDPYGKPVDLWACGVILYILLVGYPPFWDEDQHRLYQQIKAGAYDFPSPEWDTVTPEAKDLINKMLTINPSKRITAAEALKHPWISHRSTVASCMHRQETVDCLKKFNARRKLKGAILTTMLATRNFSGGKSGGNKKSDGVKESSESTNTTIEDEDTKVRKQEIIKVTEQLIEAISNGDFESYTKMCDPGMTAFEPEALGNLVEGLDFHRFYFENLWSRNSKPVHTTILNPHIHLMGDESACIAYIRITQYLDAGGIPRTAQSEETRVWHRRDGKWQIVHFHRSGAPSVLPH
T1 sequence (Q13224 836-1484 S1303A partner limits assumed): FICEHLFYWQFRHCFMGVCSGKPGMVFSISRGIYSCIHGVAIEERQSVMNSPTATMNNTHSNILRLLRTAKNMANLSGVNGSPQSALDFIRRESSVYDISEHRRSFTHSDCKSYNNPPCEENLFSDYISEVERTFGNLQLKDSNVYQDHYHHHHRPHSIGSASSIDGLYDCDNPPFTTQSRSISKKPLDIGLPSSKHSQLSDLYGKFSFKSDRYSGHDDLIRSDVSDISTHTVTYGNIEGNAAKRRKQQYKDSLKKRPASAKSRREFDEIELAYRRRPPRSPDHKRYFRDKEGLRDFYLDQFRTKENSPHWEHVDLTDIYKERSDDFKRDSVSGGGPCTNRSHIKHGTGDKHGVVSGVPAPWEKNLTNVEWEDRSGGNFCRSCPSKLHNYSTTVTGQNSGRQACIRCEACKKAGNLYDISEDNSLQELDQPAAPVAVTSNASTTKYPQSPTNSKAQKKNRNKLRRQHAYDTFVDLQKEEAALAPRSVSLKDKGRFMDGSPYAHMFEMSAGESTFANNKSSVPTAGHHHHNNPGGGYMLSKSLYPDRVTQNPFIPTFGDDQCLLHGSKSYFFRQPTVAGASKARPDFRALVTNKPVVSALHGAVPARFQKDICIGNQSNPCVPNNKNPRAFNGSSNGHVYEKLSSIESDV

CC(C)(C)n1nc(Cc2cccc3ccccc23)c2c(N)ncnc21 [NM-PP1]
binding of CaMKII F89G to GluN2B in HEK cells after ionomycin [1]: fully enabled binding
CaMKII movement after photoactivation of paCaMKII F89G [2]: enabled similar movement

— patent US20260263429A1, “INHIBITORS OF CA 2+/CALMODULIN-DEPENDENT PROTEIN KINASE II (CAMKII) THAT DO NOT INHIBIT LONG-TERM POTENTIATION (LTP) INDUCTION AND THERAPEUTIC USES THEREOF” (The Regents of the University of Colorado, A Body Corporate, priority 2023, published 2026)
